Test results taken from BindingDB's records for doi:10.1021/jm00076a003 (Eisai, 1994).

Biological target: cGMP-specific 3',5'-cyclic phosphodiesterase (PDE5A) (Sus scrofa)
Test: Inhibitory activity against cyclic GMP-phosphodiesterase (PDE V) isolated from porcine aorta.

Q: `COc1cc2c(=O)n(CCc3ccc4c(c3)OCO4)cnc2c(OC)c1OC` [3-(2-Benzo[1,3]dioxol-5-yl-ethyl)-6,7,8-trimethoxy-3H-quinazolin-4-one] was tested. Which IC50 did it give?
A: The IC50 was 32000 nM.

Q: Which IC50 does the source give for `COc1cc2c(NCCCCCO)ncnc2c(OC)c1OC` [5-(6,7,8-Trimethoxy-quinazolin-4-ylamino)-pentan-1-ol] here?
A: The IC50 was 5500 nM.

Q: Which IC50 does the source give for `CCCc1c(OCc2ccc3c(c2)OCO3)ccc2c(=O)cc(C(=O)O)oc12` [7-(Benzo[1,3]dioxol-5-ylmethoxy)-4-oxo-8-propyl-4H-chromene-2-carboxylic acid] here?
A: The IC50 was 650 nM.

Q: With `CCCc1c(OCCCOc2ccc3c(=O)cc(C(=O)O)oc3c2CCC)ccc(C(C)=O)c1O` [7-[3-(4-Acetyl-3-hydroxy-2-propyl-phenoxy)-propoxy]-4-oxo-8-propyl-4H-chromene-2-carboxylic acid] as the compound, how does the IC50 read?
A: The IC50 was 1500 nM.

Q: Which IC50 does the source give for `COc1cc2c(NCc3ccc4c(c3)OCCO4)ncnc2c(OC)c1OC` [(2,3-Dihydro-benzo[1,4]dioxin-6-ylmethyl)-(6,7,8-trimethoxy-quinazolin-4-yl)-amine] here?
A: The IC50 was 780 nM.

Q: Which IC50 does the source give for `COc1cc(OC)c(CNc2ncnc3c(OC)c(OC)c(OC)cc23)c(OC)c1` [(2,4,6-Trimethoxy-benzyl)-(6,7,8-trimethoxy-quinazolin-4-yl)-amine] here?
A: The IC50 was over 100000 nM.

Q: Which IC50 does the source give for `COc1cc(CNc2ncnc3c(OC)c(OC)c(OC)cc23)cc(OC)c1OC` [(3,4,5-Trimethoxy-benzyl)-(6,7,8-trimethoxy-quinazolin-4-yl)-amine] here?
A: The IC50 was 8900 nM.

Q: Which IC50 does the source give for `COc1cc2c(NCc3cccc(Cl)c3)ncnc2c(OC)c1OC` [(3-Chloro-benzyl)-(6,7,8-trimethoxy-quinazolin-4-yl)-amine] here?
A: Its IC50 is 1300 nM.

Q: How did the IC50 turn out when `COc1cccc(CNc2ncnc3c(OC)c(OC)c(OC)cc23)c1` [(3-Methoxy-benzyl)-(6,7,8-trimethoxy-quinazolin-4-yl)-amine] was run?
A: Its IC50 is 1700 nM.

Q: For `COc1cc2c(NCc3cccc([N+](=O)[O-])c3)ncnc2c(OC)c1OC` [(3-Nitro-benzyl)-(6,7,8-trimethoxy-quinazolin-4-yl)-amine], which IC50 is on record?
A: Its IC50 is 3500 nM.

Q: For `COc1cc2c(NCc3ccc(Cl)cc3)ncnc2c(OC)c1OC` [(4-Chloro-benzyl)-(6,7,8-trimethoxy-quinazolin-4-yl)-amine], which IC50 is on record?
A: Its IC50 is 1300 nM.

Q: Which IC50 does the source give for `COc1ccc(CNc2ncnc3c(OC)c(OC)c(OC)cc23)cc1` [(4-Methoxy-benzyl)-(6,7,8-trimethoxy-quinazolin-4-yl)-amine] here?
A: The IC50 was 1000 nM.

Q: For `COc1cc2c(NCc3ccc([N+](=O)[O-])cc3)ncnc2c(OC)c1OC` [(4-Nitro-benzyl)-(6,7,8-trimethoxy-quinazolin-4-yl)-amine], which IC50 is on record?
A: Its IC50 is over 100000 nM.

Q: How did the IC50 turn out when `COc1cc2c(NCc3ccccc3)ncnc2c(OC)c1OC` [Benzyl-(6,7,8-trimethoxy-quinazolin-4-yl)-amine] was run?
A: The IC50 was 2000 nM.

Q: With `COc1cc2c(NCc3ccco3)ncnc2c(OC)c1OC` [Furan-2-ylmethyl-(6,7,8-trimethoxy-quinazolin-4-yl)-amine] as the compound, how does the IC50 read?
A: Its IC50 is 4000 nM.

Q: Which IC50 does the source give for `COc1cc2c(NCc3ccc4c(c3)CCC4)ncnc2c(OC)c1OC` [Indan-5-ylmethyl-(6,7,8-trimethoxy-quinazolin-4-yl)-amine] here?
A: The IC50 was 1900 nM.
